One assay addresses human TLR9 (Homo sapiens (Human), UniProt Q9NR96). The assay can be described thus: TLR9 inhibition reporter assay (HEK-Blue SEAP reporter, ODN2006 stimulation).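 Further: SEAP reporter under IFN-β minimal promoter with five NF-κB and AP-1 sites, 22 h incubation, compounds 0.05 nM–50 µM, inhibition relative to agonist plus DMSO versus known inhibitor.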 The following applies: read-out: TLR9 IC50; HEK-Blue cells overexpressing human TLR9, ODN2006 5 nM, SEAP reporter.
Another assay has as its target human TLR8 (Homo sapiens (Human), UniProt Q9NR97). The assay can be described thus: TLR8 inhibition reporter assay (HEK-Blue SEAP reporter, R848 stimulation).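 Further: SEAP driven by IFN-β minimal promoter with NF-κB and AP-1 sites, 22 h incubation, compounds 0.05 nM–50 µM, inhibition scaled between agonist plus DMSO and reference inhibitor wells.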 The note with it: read-out: TLR8 IC50; HEK-Blue cells overexpressing human TLR8, R848 15.9 μM, SEAP reporter.
Another assay has as its target human TLR7 (Homo sapiens (Human), UniProt Q9NYK1). The assay can be described thus: TLR7 inhibition reporter assay (HEK-Blue SEAP reporter, gardiquimod stimulation). The note with it: HEK-Blue cells overexpressing human TLR7, gardiquimod 7.5 μM. Type of assay: cell-based.

From patent US11420973B2, “Amide substituted indole compounds useful as TLR inhibitors” (BRISTOL-MYERS SQUIBB COMPANY, priority 2017, dated 2022) come the findings set out here.

Bounds are passed on as bounds.

human TLR9, sequence (Q9NR96 26-1032): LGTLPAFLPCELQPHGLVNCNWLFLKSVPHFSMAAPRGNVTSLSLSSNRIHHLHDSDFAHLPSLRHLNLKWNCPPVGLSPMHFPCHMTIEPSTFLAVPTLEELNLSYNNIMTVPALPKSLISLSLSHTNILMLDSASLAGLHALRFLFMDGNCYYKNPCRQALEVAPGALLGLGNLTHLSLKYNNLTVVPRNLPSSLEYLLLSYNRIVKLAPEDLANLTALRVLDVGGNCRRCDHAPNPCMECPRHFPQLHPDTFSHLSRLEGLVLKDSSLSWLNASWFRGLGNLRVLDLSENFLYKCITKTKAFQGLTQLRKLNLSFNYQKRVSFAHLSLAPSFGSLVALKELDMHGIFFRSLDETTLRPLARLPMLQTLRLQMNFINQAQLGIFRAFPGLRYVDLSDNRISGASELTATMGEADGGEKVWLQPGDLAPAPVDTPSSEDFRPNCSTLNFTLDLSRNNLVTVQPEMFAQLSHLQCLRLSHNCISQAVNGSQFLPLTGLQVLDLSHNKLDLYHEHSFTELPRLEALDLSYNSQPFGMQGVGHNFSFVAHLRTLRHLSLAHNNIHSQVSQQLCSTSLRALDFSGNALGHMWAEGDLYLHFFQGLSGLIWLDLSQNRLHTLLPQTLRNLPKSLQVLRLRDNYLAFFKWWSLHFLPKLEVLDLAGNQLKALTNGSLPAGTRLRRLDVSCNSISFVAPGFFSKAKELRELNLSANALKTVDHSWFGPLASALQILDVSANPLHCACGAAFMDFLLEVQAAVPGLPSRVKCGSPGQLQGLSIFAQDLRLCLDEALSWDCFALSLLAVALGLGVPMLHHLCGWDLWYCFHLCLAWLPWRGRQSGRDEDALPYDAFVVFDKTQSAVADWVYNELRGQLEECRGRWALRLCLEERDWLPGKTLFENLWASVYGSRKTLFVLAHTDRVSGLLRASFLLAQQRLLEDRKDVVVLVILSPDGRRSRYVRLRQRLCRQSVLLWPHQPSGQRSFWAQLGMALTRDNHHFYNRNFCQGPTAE
human TLR7, sequence (Q9NYK1 27-1049): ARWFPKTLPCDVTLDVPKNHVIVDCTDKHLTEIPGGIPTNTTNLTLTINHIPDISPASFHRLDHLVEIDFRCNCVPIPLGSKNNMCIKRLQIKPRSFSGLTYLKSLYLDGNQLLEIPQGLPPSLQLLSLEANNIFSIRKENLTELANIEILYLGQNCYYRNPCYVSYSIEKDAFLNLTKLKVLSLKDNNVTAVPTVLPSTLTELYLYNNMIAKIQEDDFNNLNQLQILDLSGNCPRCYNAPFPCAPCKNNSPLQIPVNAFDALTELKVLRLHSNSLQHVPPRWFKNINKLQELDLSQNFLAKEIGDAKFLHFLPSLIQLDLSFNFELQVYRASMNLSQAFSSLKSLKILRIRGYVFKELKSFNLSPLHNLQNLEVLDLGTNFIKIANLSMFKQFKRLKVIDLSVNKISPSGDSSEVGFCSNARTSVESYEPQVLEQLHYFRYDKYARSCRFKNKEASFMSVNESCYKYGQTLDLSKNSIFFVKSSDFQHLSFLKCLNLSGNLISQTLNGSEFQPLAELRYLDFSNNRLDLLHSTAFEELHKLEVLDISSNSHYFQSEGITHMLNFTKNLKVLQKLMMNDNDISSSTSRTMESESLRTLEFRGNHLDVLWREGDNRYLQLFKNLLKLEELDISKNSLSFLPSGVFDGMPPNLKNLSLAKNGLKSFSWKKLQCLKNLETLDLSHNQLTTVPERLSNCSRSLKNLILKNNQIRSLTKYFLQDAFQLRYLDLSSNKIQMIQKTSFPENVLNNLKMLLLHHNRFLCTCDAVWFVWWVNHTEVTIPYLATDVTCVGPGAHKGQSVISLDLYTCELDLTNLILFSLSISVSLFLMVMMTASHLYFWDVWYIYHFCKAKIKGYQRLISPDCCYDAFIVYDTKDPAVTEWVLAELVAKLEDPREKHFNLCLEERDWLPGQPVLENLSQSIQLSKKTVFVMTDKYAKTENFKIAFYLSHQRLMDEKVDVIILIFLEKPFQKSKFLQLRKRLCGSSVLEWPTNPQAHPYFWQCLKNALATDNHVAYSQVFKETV
human TLR8, sequence (Q9NR97 27-1041): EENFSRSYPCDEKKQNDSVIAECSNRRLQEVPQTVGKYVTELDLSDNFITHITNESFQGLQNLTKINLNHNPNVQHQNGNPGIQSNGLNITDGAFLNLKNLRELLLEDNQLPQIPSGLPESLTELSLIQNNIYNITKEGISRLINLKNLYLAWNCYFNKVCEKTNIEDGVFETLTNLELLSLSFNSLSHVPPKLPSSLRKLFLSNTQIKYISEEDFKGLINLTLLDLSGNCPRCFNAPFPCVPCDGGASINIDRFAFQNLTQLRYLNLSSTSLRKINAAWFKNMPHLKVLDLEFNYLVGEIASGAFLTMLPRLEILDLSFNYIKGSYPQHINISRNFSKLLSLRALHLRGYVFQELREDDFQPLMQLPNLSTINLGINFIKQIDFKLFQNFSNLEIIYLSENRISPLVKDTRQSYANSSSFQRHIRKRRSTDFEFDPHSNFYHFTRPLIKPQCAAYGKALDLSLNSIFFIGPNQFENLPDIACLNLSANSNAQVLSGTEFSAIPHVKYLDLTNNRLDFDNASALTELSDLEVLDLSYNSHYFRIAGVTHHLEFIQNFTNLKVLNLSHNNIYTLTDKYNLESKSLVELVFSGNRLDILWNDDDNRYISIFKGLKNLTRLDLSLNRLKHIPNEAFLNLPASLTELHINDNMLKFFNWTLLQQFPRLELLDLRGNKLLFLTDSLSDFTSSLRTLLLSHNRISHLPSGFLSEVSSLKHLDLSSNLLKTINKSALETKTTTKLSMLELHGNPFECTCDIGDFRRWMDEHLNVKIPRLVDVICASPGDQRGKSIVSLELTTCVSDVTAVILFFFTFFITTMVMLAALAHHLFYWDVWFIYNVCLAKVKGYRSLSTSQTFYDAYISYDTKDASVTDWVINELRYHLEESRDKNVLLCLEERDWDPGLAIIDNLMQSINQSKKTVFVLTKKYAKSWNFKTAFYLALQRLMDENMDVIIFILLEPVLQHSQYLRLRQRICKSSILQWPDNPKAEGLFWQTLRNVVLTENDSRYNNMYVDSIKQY

For the molecule `CCc1c(-c2ccc(OC)c(OC)c2)[nH]c2ccc(C(=O)NCc3ccccn3)cc12` [Example 44, 2-(3,4-dimethoxyphenyl)-3-ethyl-N-(pyridin-2-ylmethyl)-1H-indole-5-carboxamide], the IC50 at human TLR9 came to 44800 nM; on human TLR8, 412 nM; against human TLR7, 1940 nM.

For `CCc1c(-c2ccc(OC)c(OC)c2)[nH]c2ccc(C(=O)NCc3csc(-c4ccccc4)n3)cc12` [Example 45, 2-(3,4-dimethoxyphenyl)-3-ethyl-N-((2-phenylthiazol-4-yl)methyl)-1H-indole-5-carboxamide], the IC50 at human TLR9 is more than 50000 nM; at human TLR8 it was 1040 nM; against human TLR7 it was 2240 nM.

Turning to `CCc1c(-c2ccc(OC)c(OC)c2)[nH]c2ccc(C(=O)NCc3ccc(N4CCNCC4)cc3)cc12` [Example 46, 2-(3,4-dimethoxyphenyl)-3-ethyl-N-(4-(piperazin-1-yl)benzyl)-1H-indole-5-carboxamide], the values for the 50% inhibitory concentration (IC50) on human TLR9, at human TLR8 and on human TLR7 were 931 nM, 60 nM and 391 nM, respectively.

On to `CCc1c(-c2ccc(OC)c(OC)c2)[nH]c2ccc(C(=O)NCCN3CCCC3)cc12` [Example 48, 2-(3,4-dimethoxyphenyl)-3-ethyl-N-(2-(pyrrolidin-1-yl)ethyl)-1H-indole-5-carboxamide], for which the IC50 came out at 2700 nM at human TLR9, 4.8 nM at human TLR8 and 144 nM against human TLR7.

With `CCc1c(-c2ccc(OC)c(OC)c2)[nH]c2ccc(C(=O)NCc3ccc(N)cc3)cc12` [Example 52, N-(4-aminobenzyl)-2-(3,4-dimethoxyphenyl)-3-ethyl-1H-indole-5-carboxamide], the results for the IC50 on human TLR9, on human TLR8 and on human TLR7 were more than 50000 nM, 243 nM and 2380 nM, respectively.

As to `CCc1c(-c2ccc(OC)c(OC)c2)[nH]c2ccc(C(=O)NCCCN3CCCCC3)cc12` [Example 53, 2-(3,4-dimethoxyphenyl)-3-ethyl-N-(3-(piperidin-1-yl)propyl)-1H-indole-5-carboxamide], the IC50 at human TLR9 is 2000 nM; on human TLR8 it was 8.1 nM; on human TLR7, 258 nM.

For the molecule `CCc1c(-c2ccc(OC)c(OC)c2)[nH]c2ccc(C(=O)NCCC3CCCN3C)cc12` (stereo not drawn) [Example 54, 2-(3,4-dimethoxyphenyl)-3-ethyl-N-(2-(1-methylpyrrolidin-2-yl)ethyl)-1H-indole-5-carboxamide], the IC50 on human TLR9 stood at 1810 nM; on human TLR8, 12 nM; at human TLR7, 206 nM.

In the case of `CCc1c(-c2ccc(OC)c(OC)c2)[nH]c2ccc(C(=O)NCCCN3CCN(C)CC3)cc12` [Example 55, 2-(3,4-dimethoxyphenyl)-3-ethyl-N-(3-(4-methylpiperazin-1-yl)propyl)-1H-indole-5-carboxamide], the results for the IC50 at human TLR9, at human TLR8 and on human TLR7 were 2090 nM, 16 nM and 954 nM, respectively.

Regarding `CCc1c(-c2ccc(OC)c(OC)c2)[nH]c2ccc(C(=O)N3CCC(N4CCCCC4)CC3)cc12` [Example 56, [1,4′-bipiperidin]-1′-yl(2-(3,4-dimethoxyphenyl)-3-ethyl-1H-indol-5-yl)methanone], the values for the IC50 on human TLR9, at human TLR8 and at human TLR7 were 2190 nM, 13 nM and 112 nM, respectively.

Regarding `CCc1c(-c2ccc(OC)c(OC)c2)[nH]c2ccc(C(=O)N3CCN(c4ncccn4)CC3)cc12` [Example 57, (2-(3,4-dimethoxyphenyl)-3-ethyl-1H-indol-5-yl)(4-(pyrimidin-2-yl)piperazin-1-yl)methanone], the values for the IC50 on human TLR9, on human TLR8 and on human TLR7 were more than 50000 nM, 218 nM and 577 nM, respectively.

With `CCc1c(-c2ccc(OC)c(OC)c2)[nH]c2ccc(C(=O)N3CCN(C(=O)c4ccco4)CC3)cc12` [Example 60, (2-(3,4-dimethoxyphenyl)-3-ethyl-1H-indol-5-yl)(4-(furan-2-carbonyl)piperazin-1-yl)methanone], the IC50 is more than 50000 nM at human TLR9, 115 nM on human TLR8 and 206 nM on human TLR7.

`CCc1c(-c2ccc(OC)c(OC)c2)[nH]c2ccc(C(=O)N3CCN(c4ccc(C(F)(F)F)cn4)CC3)cc12` [Example 61, (2-(3,4-dimethoxyphenyl)-3-ethyl-1H-indol-5-yl)(4-(5-(trifluoromethyl)pyridin-2-yl)piperazin-1-yl)methanone]: the IC50 on human TLR9 was found to be 10200 nM; at human TLR8 it was 1620 nM; at human TLR7, 4120 nM.

Regarding `CCc1c(-c2ccc(OC)c(OC)c2)[nH]c2ccc(C(=O)N3CCNC(=O)C3)cc12` [Example 62, 4-(2-(3,4-dimethoxyphenyl)-3-ethyl-1H-indole-5-carbonyl)piperazin-2-one], the IC50 on human TLR9 was more than 50000 nM; at human TLR8, 381 nM; against human TLR7 it was 493 nM.

Consider `CCc1c(-c2ccc(OC)c(OC)c2)[nH]c2ccc(C(=O)N3CCC(n4c(=O)[nH]c5ccccc54)CC3)cc12` [Example 63, 1-(1-(2-(3,4-dimethoxyphenyl)-3-ethyl-1H-indole-5-carbonyl)piperidin-4-yl)-1,3-dihydro-2H-benzo[d]imidazol-2-one], for which the IC50 on human TLR9 is 13600 nM; at human TLR8, 464 nM; against human TLR7, 801 nM.

Regarding `CCc1c(-c2ccc(OC)c(OC)c2)[nH]c2ccc(C(=O)N3CCCN(c4ncccn4)CC3)cc12` [Example 64, (2-(3,4-dimethoxyphenyl)-3-ethyl-1H-indol-5-yl)(4-(pyrimidin-2-yl)-1,4-diazepan-1-yl)methanone], the results for the concentration for half-maximal inhibition (IC50) on human TLR9, at human TLR8 and against human TLR7 were 16600 nM, 2190 nM and 1280 nM, respectively.

`CCc1c(-c2ccc(OC)c(OC)c2)[nH]c2ccc(C(=O)N3CCCN(c4ccccn4)CC3)cc12` [Example 65, (2-(3,4-dimethoxyphenyl)-3-ethyl-1H-indol-5-yl)(4-(pyridin-2-yl)-1,4-diazepan-1-yl)methanone]: the figures for the IC50 on human TLR9, at human TLR8 and against human TLR7 were 7240 nM, 1630 nM and 1210 nM, respectively.

With `CCc1c(-c2ccc(OC)c(OC)c2)[nH]c2ccc(C(=O)N3CCc4ccccc43)cc12` [Example 66, (2-(3,4-dimethoxyphenyl)-3-ethyl-1H-indol-5-yl)(indolin-1-yl)methanone], the figures for the IC50 at human TLR9, at human TLR8 and against human TLR7 were more than 50000 nM, 1170 nM and 3940 nM, respectively.

Regarding `CCc1c(-c2ccc(OC)c(OC)c2)[nH]c2ccc(C(=O)NC(CO)CO)cc12` [Example 67, N-(1,3-dihydroxypropan-2-yl)-2-(3,4-dimethoxyphenyl)-3-ethyl-1H-indole-5-carboxamide], the IC50 on human TLR9 is more than 50000 nM; at human TLR8, 412 nM; against human TLR7, 1770 nM.

Take `CCc1c(-c2ccc(OC)c(OC)c2)[nH]c2ccc(C(=O)NCCC(N)=O)cc12` [Example 68, N-(3-amino-3-oxopropyl)-2-(3,4-dimethoxyphenyl)-3-ethyl-1H-indole-5-carboxamide]: the figures for the IC50 on human TLR9, at human TLR8 and against human TLR7 were more than 50000 nM, 277 nM and 1710 nM, respectively.

As for `CCc1c(-c2ccc(OC)c(OC)c2)[nH]c2ccc(C(=O)NCCO)cc12` [Example 69, 2-(3,4-dimethoxyphenyl)-3-ethyl-N-(2-hydroxyethyl)-1H-indole-5-carboxamide], the IC50 is more than 50000 nM at human TLR9, 274 nM at human TLR8 and 968 nM against human TLR7.

Consider `CCc1c(-c2ccc(OC)c(OC)c2)[nH]c2ccc(C(=O)NCCC(C)(C)NS(C)(=O)=O)cc12` [Example 71, 2-(3,4-dimethoxyphenyl)-3-ethyl-N-(3-methyl-3-(methylsulfonamido)butyl)-1H-indole-5-carboxamide], for which the half-maximal inhibitory concentration (IC50) on human TLR9 is more than 50000 nM; at human TLR8 it was 439 nM; against human TLR7, 1630 nM.

Turning to `CCc1c(-c2ccc(OC)c(OC)c2)[nH]c2ccc(C(=O)NCC(C)(C)CO)cc12` [Example 72, 2-(3,4-dimethoxyphenyl)-3-ethyl-N-(3-hydroxy-2,2-dimethylpropyl)-1H-indole-5-carboxamide], the half-maximal inhibitory concentration (IC50) is more than 50000 nM on human TLR9, 408 nM on human TLR8 and 579 nM against human TLR7.

For `CCc1c(-c2ccc(OC)c(OC)c2)[nH]c2ccc(C(=O)N(CC)CCN(C)C)cc12` [Example 73, 2-(3,4-dimethoxyphenyl)-N-(2-(dimethylamino)ethyl)-N,3-diethyl-1H-indole-5-carboxamide], the half-inhibitory concentration (IC50) on human TLR9 was determined as 4340 nM; at human TLR8, 4 nM; against human TLR7, 25 nM.

Turning to `CCc1c(-c2ccc(OC)c(OC)c2)[nH]c2ccc(C(=O)N(C)CCCN(C)C)cc12` [Example 74, 2-(3,4-dimethoxyphenyl)-N-(3-(dimethylamino)propyl)-3-ethyl-N-methyl-1H-indole-5-carboxamide], the IC50 at human TLR9 amounted to 5880 nM; at human TLR8, 16 nM; at human TLR7, 156 nM.

For `CCc1c(-c2ccc(OC)c(OC)c2)[nH]c2ccc(C(=O)NCCCN(C)C)cc12` [Example 75, 2-(3,4-dimethoxyphenyl)-N-(3-(dimethylamino)propyl)-3-ethyl-1H-indole-5-carboxamide], the 50% inhibitory concentration (IC50) worked out at 250 nM at human TLR9, 7.6 nM on human TLR8 and 124 nM on human TLR7.

For `CCc1c(-c2ccc(OC)c(OC)c2)[nH]c2ccc(C(=O)N(C)CCN(C)C)cc12` [Example 76, 2-(3,4-dimethoxyphenyl)-N-(2-(dimethylamino)ethyl)-3-ethyl-N-methyl-1H-indole-5-carboxamide], the values for the IC50 at human TLR9, on human TLR8 and against human TLR7 were 4890 nM, 3.9 nM and 56 nM, respectively.

As to `CCc1c(-c2ccc(OC)c(OC)c2)[nH]c2ccc(C(=O)N(CCOC)CCOC)cc12` [Example 77, 2-(3,4-dimethoxyphenyl)-3-ethyl-N,N-bis(2-methoxyethyl)-1H-indole-5-carboxamide], the figures for the IC50 on human TLR9, on human TLR8 and against human TLR7 were 40300 nM, 480 nM and 714 nM, respectively.
